Measurements from patent US8685953B2, “Linear and cyclic guanidine derivatives, method of preparation and uses thereof” (Universita Degli Studi Di Siena, priority 2008, dated 2014).
≈ marks a conversion by molar mass, not a printed value. Where a name gives a salt, the structure may show the parent alone. Read-outs that look alike come from different tables or passages of the source.

How the values were obtained:
C. albicans 15T = assay: MIC determination by AFST-EUCAST standard methodology; assay type: cell-based, Candida albicans; settings: 24 h, visually and spectrophotometrically, read-out: Antifungal activity, expressed as MIC50
Protocol: (§1) Determination of MICs by AFST-EUCAST Standard Methodology
(§2) Assay medium. The assay medium was RPMI […] without NaHCO3 and with L-glutamine (Sigma Aldrich, Italy), buffered at pH 7.0 with 0.165 M morpholinepropanesulphonic acid (Sigma Aldrich, Italy) and supplemented with 2% (w/v) glucose. The medium, prepared as double-strength solution, was sterilized by filtration and diluted 1:2 (v/v) with the fungal inoculum prepared in sterile distilled water.
(§3) The yeast isolates were grown on Sabouraud dextrose agar (Oxoid, Madrid, Spain) for 48 h at 37° C. before testing. Suspensions were prepared by combining five distinct colonies of each culture of >1 mm diameter. A spectrophotometric procedure for inoculum preparation was used. The final inoculum suspension, prepared in sterile distilled water, contained between 0.5·10^5 and 2.5·10^5 cfu/mL.
(§4) Stock solutions of test compounds were prepared in 100% dimethyl sulfoxide. Stock solutions were prepared as 100× concentration relative to the highest concentration in the antifungal activity test, and frozen at −70° C. until used.
(§5) Sterile plastic micro titration plates containing flat-bottomed wells were used. The plates contained serial dilution of the antifungal agents with a volume of assay medium of 100 μL/well. Two drug-free medium wells were used as sterility and growth controls. The trays were inoculated with 100 μL/well of the final inoculum, with the exception of sterility control wells. The range of concentrations tested for each drug was 1.25-80 μM. The microtitration plates were incubated at 37° C. for 24 h. The minimal inhibitory concentrations (MICs) were determined at 24 h both visually and spectrophotometrically.
(§6) By visual endpoint determination, MICs were determined according to a S-1-R scale, with S (susceptible) indicating an optical clear culture, I (intermediate susceptibility) indicating a slightly hazy culture, and R (resistant) indicating no reduction in turbidity. The MIC50 was defined as the lowest concentration of a drug which correspond to a S culture.
(§7) Microtitration plates were stirred using a microtitration plate shaker before reading to ensure uniform turbidity. MICs were obtained by measuring the absorbance at 450 nm with a microtitration plate reader. The value of the blank was subtracted from reading of the rest of the wells. Two endpoints were defined for each antifungal agent tested, with MIC80 indicating the lowest drug concentration resulting in a reduction of growth of 80% or more (determined spectrophotometrically) compared with the growth of the control, and MIC50 indicating the lowest drug concentration resulting in a reduction in growth of 50% (determined spectrophotometrically) compared with the growth of the control. The MIC50 was also defined as the spectrophotometric endpoint.

C. albicans 4T = assay: as above; assay type: cell-based, Candida albicans; settings: 24 h, visually and spectrophotometrically; for MIC50: read-out: Antifungal activity, expressed as MIC50
Protocol: as §1, §2, §3, §4, §5, §6, §7

C. albicans 53T = assay: as above; assay type: cell-based, Candida albicans; settings: 24 h, visually and spectrophotometrically, read-out: Antifungal activity, expressed as MIC50
Protocol: as §1, §2, §3, §4, §5, §6, §7

C. albicans ATCC 60193 = assay: as above; assay type: cell-based, Candida albicans; settings: visually and spectrophotometrically, read-out: Antifungal activity, expressed as MIC50
Protocol: as §1, §2, §3, §4, §5, §6, §7

C. glabrata 70E = assay: as above; assay type: cell-based; settings: for MIC50: C. glabrata 70E, 24 h, visually and spectrophotometrically, read-out: Antifungal activity, expressed as MIC50
Protocol: as §1, §2, §3, §4, §5, §6, §7

C. krusei 193T = assay: as above; assay type: cell-based; settings: 24 h, visually and spectrophotometrically, read-out: Antifungal activity, expressed as MIC50
Protocol: as §1, §2, §3, §4, §5, §6, §7

C. krusei ATCC 14243 = assay: as above; assay type: cell-based; settings: visually and spectrophotometrically, read-out: Antifungal activity, expressed as MIC50
Protocol: as §1, §2, §3, §4, §5, §6, §7

C. parapsilosis 64E = assay: as above; assay type: cell-based; settings: 24 h, visually and spectrophotometrically, read-out: Antifungal activity, expressed as MIC50
Protocol: as §1, §2, §3, §4, §5, §6, §7

C. parapsilosis 81E = assay: as above; assay type: cell-based; settings: 24 h, visually and spectrophotometrically, read-out: Antifungal activity, expressed as MIC50
Protocol: as §1, §2, §3, §4, §5, §6, §7

[1] = system: C. parapsilosis ATCC 34136; assay: as above; assay type: cell-based; settings: visually and spectrophotometrically, read-out: Antifungal activity, expressed as MIC50
Protocol: as §1, §2, §3, §4, §5, §6, §7

C. tropicalis 86E = assay: as above; assay type: cell-based; settings: 24 h, visually and spectrophotometrically, read-out: Antifungal activity, expressed as MIC50
Protocol: as §1, §2, §3, §4, §5, §6, §7

C. albicans = assay: MIC determination, summary over C. albicans strains; assay type: cell-based; settings: Candida albicans; text summary over all C. albicans strains; read-out: activity toward C. albicans (MIC)
Protocol: as §1, §2
(§8) The yeast isolates were grown on Sabouraud dextrose agar (Oxoid, Madrid, Spain) for 48 h at 37° C. before testing. Suspensions were prepared by combining five distinct colonies of each culture of >1 mm diameter. […]
(§9) Sterile plastic micro titration plates containing flat-bottomed wells were used. […] The minimal inhibitory concentrations (MICs) were determined at 24 h both visually and spectrophotometrically.
(§10) By visual endpoint determination, MICs were determined according to a S-1-R scale, with S (susceptible) indicating an optical clear culture, I (intermediate susceptibility) indicating a slightly hazy culture, and R (resistant) indicating no reduction in turbidity. […]
(§11) Microtitration plates were stirred using a microtitration plate shaker before reading to ensure uniform turbidity. MICs were obtained by measuring the absorbance at 450 nm with a microtitration plate reader. The value of the blank was subtracted from reading of the rest of the wells. […]

C. krusei strains = assay: MIC determination, summary over C. krusei strains; assay type: cell-based; settings: Pichia kudriavzevii; text summary over C. krusei strains; read-out: activity toward C. krusei strains (MIC)
Protocol: as §1, §2, §8, §9, §10, §11

C. parapsilosis = assay: MIC determination, summary over C. parapsilosis; assay type: cell-based; settings: Lodderomyces parapsilosis, stated jointly with C. glabrata; read-out: activity toward C. parapsilosis (MIC)
Protocol: as §1, §2, §8, §9, §10, §11

[2] = Candida albicans, ATCC60193, 24 h
[3] = Pichia kudriavzevii, ATCC14243, 24 h
[4] = Lodderomyces parapsilosis, ATCC34136, 24 h

SMILES	MIC50 (C. albicans 15T) [µM]	MIC50 (C. albicans 4T) [µM]	MIC50 (C. albicans 53T) [µM]	MIC50 (C. albicans ATCC 60193; 24 h) [µM]	MIC50 (C. glabrata 70E) [µM]	MIC50 (C. krusei 193T) [µM]	MIC50 (C. krusei ATCC 14243; 24 h) [µM]	MIC50 (C. parapsilosis 64E) [µM]	MIC50 (C. parapsilosis 81E) [µM]	MIC50 ([1]; 24 h) [µM]	MIC50 (C. tropicalis 86E) [µM]	MIC50 (C. albicans 15T; Candida albicans) [µM]	MIC50 (C. albicans 4T; Candida albicans) [µM]	MIC50 (C. albicans 53T; Candida albicans) [µM]	MIC50 (C. albicans ATCC 60193; [2]) [µM]	MIC50 (C. glabrata 70E; Nakaseomyces glabratus) [µM]	MIC50 (C. krusei 193T; Pichia kudriavzevii) [µM]	MIC50 (C. krusei ATCC 14243; [3]) [µM]	MIC50 (C. parapsilosis 64E; Lodderomyces parapsilosis) [µM]	MIC50 (C. parapsilosis 81E; Lodderomyces parapsilosis) [µM]	also measured
N=C(N)NCCCCCCCCNCCCCCCCCNC(=N)NCC1CC1 [Compound 12c]	20 (≈ 8.19 µg/mL)	10 (≈ 4.1 µg/mL)	10 (≈ 4.1 µg/mL)	20 (≈ 8.19 µg/mL)	20 (≈ 8.19 µg/mL)	10 (≈ 4.1 µg/mL)	5 (≈ 2.05 µg/mL)	5 (≈ 2.05 µg/mL)	20 (≈ 8.19 µg/mL)	80 (≈ 32.8 µg/mL)	5 (≈ 2.05 µg/mL)										
CC(C)=CCNC(=N)NCCCCCCCCNCCCCCCCCNC(=N)N [Compound 12f]	40 (≈ 16.9 µg/mL)	80 (≈ 33.9 µg/mL)	80 (≈ 33.9 µg/mL)	80 (≈ 33.9 µg/mL)	80 (≈ 33.9 µg/mL)	20 (≈ 8.47 µg/mL)	40 (≈ 16.9 µg/mL)	>80	40 (≈ 16.9 µg/mL)	>80	20 (≈ 8.47 µg/mL)										
N=C(NCCCCCCCCN1CCCCCCCCNC(=N)NC1=O)NCc1ccccc1 [Compound 13a]	5 (≈ 2.36 µg/mL)	2.5 (≈ 1.18 µg/mL)	2.5 (≈ 1.18 µg/mL)	2.5 (≈ 1.18 µg/mL)	40 (≈ 18.9 µg/mL)	10 (≈ 4.72 µg/mL)	20 (≈ 9.43 µg/mL)	20 (≈ 9.43 µg/mL)	20 (≈ 9.43 µg/mL)	80 (≈ 37.7 µg/mL)	2.5 (≈ 1.18 µg/mL)										
C#CCNC(=N)NCCCCCCCCN1CCCCCCCCNC(=N)NC1=O [Compound 13b]	2.5 (≈ 1.05 µg/mL)	80 (≈ 33.6 µg/mL)	5 (≈ 2.1 µg/mL)	2.5 (≈ 1.05 µg/mL)	80 (≈ 33.6 µg/mL)	40 (≈ 16.8 µg/mL)	80 (≈ 33.6 µg/mL)	40 (≈ 16.8 µg/mL)	80 (≈ 33.6 µg/mL)	40 (≈ 16.8 µg/mL)	5 (≈ 2.1 µg/mL)										
CC=CCNC(=N)NCCCCCCCCN1CCCCCCCCNC(=N)NC1=O [Compound 13d]	1.25 (≈ 0.545 µg/mL)	1.25 (≈ 0.545 µg/mL)	2.5 (≈ 1.09 µg/mL)	2.5 (≈ 1.09 µg/mL)	20 (≈ 8.71 µg/mL)	5 (≈ 2.18 µg/mL)	5 (≈ 2.18 µg/mL)	5 (≈ 2.18 µg/mL)	5 (≈ 2.18 µg/mL)	5 (≈ 2.18 µg/mL)	1.25 (≈ 0.545 µg/mL)										
C=C(C)CNC(=N)NCCCCCCCCN1CCCCCCCCNC(=N)NC1=O [Compound 13e]	20 (≈ 8.71 µg/mL)	40 (≈ 17.4 µg/mL)	40 (≈ 17.4 µg/mL)	20 (≈ 8.71 µg/mL)	80 (≈ 34.9 µg/mL)	80 (≈ 34.9 µg/mL)	40 (≈ 17.4 µg/mL)	>80	>80	>80	40 (≈ 17.4 µg/mL)										
CC(C)=CCNC(=N)NCCCCCCCCN1CCCCCCCCNC(=N)NC1=O [Compound 13f]	20 (≈ 8.99 µg/mL)	20 (≈ 8.99 µg/mL)	20 (≈ 8.99 µg/mL)	40 (≈ 18 µg/mL)	80 (≈ 36 µg/mL)	20 (≈ 8.99 µg/mL)	10 (≈ 4.5 µg/mL)	>80	40 (≈ 18 µg/mL)	>80	20 (≈ 8.99 µg/mL)										
N=C(NCCCCCCCCN1CCCCCCCCNC(=N)NC1=O)NCc1ccccc1 [Compound 15a, 1-[benzyl]-3-[8-(4-imino-2-oxo-1,3,5-triazacyclotridec-1-yl)octyl]guanidine tri trifluoroacetate]												5	2.5	2.5	2.5	40	10	20	20	20	MIC50 [1, 4]: 80 µM; MIC50 (C. tropicalis 86E; Candida tropicalis): 2.5 µM
C#CCNC(=N)NCCCCCCCCN1CCCCCCCCNC(=N)NC1=O.O=C(O)C(F)(F)F.O=C(O)C(F)(F)F.O=C(O)C(F)(F)F [Compound 15b, 1-[propargyl]-3-[8-(4-imino-2-oxo-1,3,5-triazacyclotridec-1-yl)octyl]guanidine tri trifluoroacetate]												2.5	80	5	2.5	80	40	80	40	80	Antifungal activity, expressed as MIC50 (C. albicans 4T): resistant; MIC50 [1, 4]: 40 µM; MIC50 (C. tropicalis 86E; Candida tropicalis): 5 µM
N=C(NCCCCCCCCN1CCCCCCCCNC(=N)NC1=O)NCC1CC1 [Compound 15c, 1-[cyclopropylmethyl]-3-[8-(4-imino-2-oxo-1,3,5-triazacyclotridec-1-yl)octyl]guanidine tri trifluoroacetate]												2.5	2.5	2.5	2.5	40	10	10	20	40	MIC50 [1, 4]: > 80 µM; MIC50 (C. tropicalis 86E; Candida tropicalis): 1.25 µM; MIC (C. albicans): 2.5 µM; MIC (C. krusei strains): 10 µM
C=C(C)CNC(=N)NCCCCCCCCN1CCCCCCCCNC(=N)NC1=O [Compound 15d, 1[β-methylallyl]-3-[8-(4-imino-2-oxo-1,3,5-triazacyclotridec-1-yl)octyl]guanidine tri trifluoroacetate]												20	40	40	20	80	80	40	> 80	> 80	MIC50 [1, 4]: > 80 µM; MIC50 (C. tropicalis 86E; Candida tropicalis): 40 µM
CC(C)=CCNC(=N)NCCCCCCCCN1CCCCCCCCNC(=N)NC1=O [Compound 15e, 1-[γ,γ-dimethylallyl]-3-[8-(4-imino-2-oxo-1,3,5-triazacyclotridec-1-yl)octyl]guanidine tri trifluoroacetate]												20	20	20	40	80	20	10	> 80	40	MIC (C. glabrata 70E; Nakaseomyces glabratus, 70E, stated jointly with C. parapsilosis, read-out: activity toward C. glabrata (MIC)): 40 to 80 µM; MIC50 [1, 4]: > 80 µM; MIC50 (C. tropicalis 86E; Candida tropicalis): 20 µM; MIC (C. albicans): 20 to 40 µM; MIC (C. parapsilosis): 40 to 80 µM
OC(Cn1cncn1)(Cn1cncn1)c1ccc(F)cc1F [F, fluconazole, reference compound]												209 (≈ 64 µg/mL)	209 (≈ 64 µg/mL)	418 (≈ 128 µg/mL)	0.8 (≈ 0.245 µg/mL)	209 (≈ 64 µg/mL)	418 (≈ 128 µg/mL)	209 (≈ 64 µg/mL)	32 (≈ 9.8 µg/mL)	13 (≈ 3.98 µg/mL)	MIC50 [1, 4]: 6.5 µM (≈ 1.99 µg/mL); MIC50 (C. tropicalis 86E; Candida tropicalis): 52 µM (≈ 15.9 µg/mL)
